{
  "source": "patent US20180303807A1",
  "about": "“ANDROGEN RECEPTOR LIGANDS” (DUKE UNIVERSITY, priority 2015, published 2018)",
  "format_in_all_cases": "cell-based",
  "key": {"AR [1]": {"biological_target": "T1, AR (Homo sapiens, UniProt P10275)", "T1 construct": "expressed in transfected cells; host or cells: CV1 cells", "T1 sequence (P10275 1-920)": "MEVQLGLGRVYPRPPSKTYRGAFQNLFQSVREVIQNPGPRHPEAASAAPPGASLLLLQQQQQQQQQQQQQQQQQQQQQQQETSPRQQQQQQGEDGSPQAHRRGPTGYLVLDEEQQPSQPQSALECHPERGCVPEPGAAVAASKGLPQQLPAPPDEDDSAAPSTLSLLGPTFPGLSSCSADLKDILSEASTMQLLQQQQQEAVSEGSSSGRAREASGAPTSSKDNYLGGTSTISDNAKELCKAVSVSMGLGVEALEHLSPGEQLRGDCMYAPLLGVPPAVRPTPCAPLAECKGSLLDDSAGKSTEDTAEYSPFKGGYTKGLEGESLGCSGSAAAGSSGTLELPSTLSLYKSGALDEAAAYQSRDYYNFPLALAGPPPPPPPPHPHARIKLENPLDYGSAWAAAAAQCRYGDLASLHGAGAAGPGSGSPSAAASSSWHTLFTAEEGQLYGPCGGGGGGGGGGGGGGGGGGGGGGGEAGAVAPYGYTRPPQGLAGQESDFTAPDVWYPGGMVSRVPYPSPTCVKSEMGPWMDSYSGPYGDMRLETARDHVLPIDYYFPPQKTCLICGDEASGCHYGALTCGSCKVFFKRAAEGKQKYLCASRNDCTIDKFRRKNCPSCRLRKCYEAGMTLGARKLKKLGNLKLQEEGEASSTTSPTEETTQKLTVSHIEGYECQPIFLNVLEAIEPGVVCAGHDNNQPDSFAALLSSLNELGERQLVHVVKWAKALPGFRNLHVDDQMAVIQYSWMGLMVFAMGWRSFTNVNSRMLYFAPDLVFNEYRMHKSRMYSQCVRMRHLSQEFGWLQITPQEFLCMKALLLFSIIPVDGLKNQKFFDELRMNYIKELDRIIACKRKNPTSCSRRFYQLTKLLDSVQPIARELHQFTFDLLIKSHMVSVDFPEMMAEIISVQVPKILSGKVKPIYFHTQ", "assay": "Reporter gene assay, AR transcriptional (MMTV-Luc) in CV1 cells", "conditions": "pcDNA-AR + MMTV-Luc, 0.1 nM R1881 plus test compound, 24 hrs, read-out: B1 = AR transcriptional IC50 (μM) in CV1 cells", "outline": "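CV1 cells transiently co-transfected with human AR, MMTV-Luc reporter and Renilla-Luc (transfection efficiency and toxicity read-out), then stimulated 24 h with 0.1 nM R1881 plus increasing test compound concentrations. Firefly and Renilla luciferase quantified by dual-luciferase assay; IC50 derived from concentration-response.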"}, "CV1 cells": {"test_system": "CV1 cells", "assay": "Toxicity of test compound in the CV1 reporter gene assay (Renilla-Luc)", "method": "Reporter Gene Assay (IC50 determination, Table 2, B1-B3). CV1 cells were seeded into 96-well cell culture plates and transfected with Lipofectin. For AR transcriptional assays, the DNA mixture consisted of pcDNA-AR, MMTV-Luc (androgen responsive reporter gene), and Renilla-Luc (for assessing transfection efficiency and toxicity). Following overnight incubation, cells were induced with hormone (0.1 nM R1881 (synthetic AR agonist) plus increasing concentrations of test compound) for 24 hrs. Cells were lysed and luciferase activity was quantified using Dual Luciferase Reagent (DLR). IC50 determination was assessed using GraphPad Prism software."}, "AR [2]": {"test_system": "AR", "assay": "Real-time PCR of AR target gene transcription in LNCaP-AR (AR overexpressing) cells, CRPC model", "set-up": "key to B5 = Relative antagonist activity (plus 0.1 nM R1881) of test compounds (20 μM) in AR overexpressing LNCaP cells (NKX3.1 AR target gene) / B7 = Relative antagonist activity (plus 0.1 nM R1881) of test compounds (20 μM) in AR overexpressing LNCaP cells (PSA AR target gene): a score of 1 indicates higher antagonist efficacy (highly desired activity) than benchmark compound enzalutamide; a score of 2 indicates equal antagonist efficacy to enzalutamide (desirable); a score of 3 indicates antagonist efficacy between enzalutamide and bicalutamide (less desirable activity); a score of 4 indicates antagonist efficacy equal to bicalutamide (liability); a score of 5 indicates antagonist efficacy worse than bicalutamide (liability); key to B4 = Relative agonist activity (no R1881) of test compounds (20 μM) in AR overexpressing LNCaP cells (NKX3.1 AR target gene) / B6 Relative agonist activity (no R1881) of test compounds (20 μM) in AR overexpressing LNCaP cells (PSA AR target gene): a score of 1 indicates less agonism (highly desired activity) than benchmark compound enzalutamide; a score of 2 indicates equal agonism to enzalutamide (desirable); a score of 3 indicates agonism between enzalutamide and bicalutamide (less desirable activity); a score of 4 indicates equal agonism to bicalutamide (liability); a score of 5 indicates higher agonism than bicalutamide (liability)", "conditions": "20 μM, score vs enzalutamide/bicalutamide; for B4 = Relative agonist activity (no R1881) of test compounds (20 μM) in AR overexpressing LNCaP cells (NKX3.1 AR target gene): no R1881, NKX3.1 gene; for B5 = Relative antagonist activity (plus 0.1 nM R1881) of test compounds (20 μM) in AR overexpressing LNCaP cells (NKX3.1 AR target gene): plus 0.1 nM R1881, NKX3.1 gene; for B7 = Relative antagonist activity (plus 0.1 nM R1881) of test compounds (20 μM) in AR overexpressing LNCaP cells (PSA AR target gene): plus 0.1 nM R1881, PSA gene", "method": "Real-Time PCR (CRPC model of AR overexpressing prostate cancer cells, Table 2, B4-B7). LNCaP-AR (AR overexpressing cells) cells were seeded in 12-well plates in RPMI 1640 (8% charcoal-stripped fetal calf serum (CFS)). […] AR target gene transcription (PSA, NKX3.1, FKBP5) was assessed by realtime PCR.\nFor B4-B7, scoring system is based on the relative AR target gene agonist/antagonist activity of test compounds when compared to benchmark compounds enzalutamide or bicalutamide. […] The lack of agonist activity is desirable for therapies intended to treat CRPC. For B4 and B6, a score of 1 indicates less agonism (highly desired activity) than benchmark compound enzalutamide, a score of 2 indicates equal agonism to enzalutamide (desirable), a score of 3 indicates agonism between enzalutamide and bicalutamide (less desirable activity), a score of 4 indicates equal agonism to bicalutamide (liability), and a score of 5 indicates higher agonism than bicalutamide (liability). For B5 and B7 a score of 1 indicates higher antagonist efficacy (highly desired activity) than benchmark compound enzalutamide, a score of 2 indicates equal antagonist efficacy to enzalutamide (desirable), a score of 3 indicates antagonist efficacy between enzalutamide and bicalutamide (less desirable activity), a score of 4 indicates antagonist efficacy equal to bicalutamide (liability), and a score of 5 indicates antagonist efficacy worse than bicalutamide (liability) For B9, Compounds that degrade AR (greater than 50% degradation at 10 μM) are indicated."}},
  "data": [
    {"smiles": "O=C1CCCC2=C1C(c1ccc(Cl)cc1Cl)c1c(ccc3ccccc13)N2", "note": "(centres unmarked) [Compound A7]", "values": [
      {"measurement": "IC50", "setting": "AR [1]", "result": 3.8, "unit": "µM"},
      {"measurement": "B2 = % Toxicity of test compound (20 μM)", "setting": "CV1 cells", "result": 75, "unit": "%"},
      {"measurement": "B3 = % Toxicity of test compound (60 μM)", "setting": "CV1 cells", "result": 91, "unit": "%"},
      {"measurement": "B4 = Relative agonist activity (no R1881) of test compounds (20 μM) in AR overexpressing LNCaP cells (NKX3.1 AR target gene)", "setting": "AR [2]", "result": 1},
      {"measurement": "B6 Relative agonist activity (no R1881) of test compounds (20 μM) in AR overexpressing LNCaP cells (PSA AR target gene)", "setting": "AR [2]", "result": 1},
      {"measurement": "B5 = Relative antagonist activity (plus 0.1 nM R1881) of test compounds (20 μM) in AR overexpressing LNCaP cells (NKX3.1 AR target gene)", "setting": "AR [2]", "result": 2},
      {"measurement": "B7 = Relative antagonist activity (plus 0.1 nM R1881) of test compounds (20 μM) in AR overexpressing LNCaP cells (PSA AR target gene)", "setting": "AR [2]", "result": 1}
    ]},
    {"smiles": "Cn1c(=O)n(C)c2cc(C3C4=C(CC(C)(C)CC4=O)Nc4ccc5ccccc5c43)ccc21", "note": "(centres unmarked) [Compound A8]", "values": [
      {"measurement": "IC50", "setting": "AR [1]", "result": 5.3, "unit": "µM"},
      {"measurement": "B2 = % Toxicity of test compound (20 μM)", "setting": "CV1 cells", "result": 0, "unit": "%"},
      {"measurement": "B3 = % Toxicity of test compound (60 μM)", "setting": "CV1 cells", "result": 0, "unit": "%"},
      {"measurement": "B4 = Relative agonist activity (no R1881) of test compounds (20 μM) in AR overexpressing LNCaP cells (NKX3.1 AR target gene)", "setting": "AR [2]", "result": 2},
      {"measurement": "B6 Relative agonist activity (no R1881) of test compounds (20 μM) in AR overexpressing LNCaP cells (PSA AR target gene)", "setting": "AR [2]", "result": 1},
      {"measurement": "B5 = Relative antagonist activity (plus 0.1 nM R1881) of test compounds (20 μM) in AR overexpressing LNCaP cells (NKX3.1 AR target gene)", "setting": "AR [2]", "result": 1},
      {"measurement": "B7 = Relative antagonist activity (plus 0.1 nM R1881) of test compounds (20 μM) in AR overexpressing LNCaP cells (PSA AR target gene)", "setting": "AR [2]", "result": 1}
    ]},
    {"smiles": "CC1(C)CC(=O)C2=C(C1)Nc1ccc3ccccc3c1C2c1cccc(C(F)(F)F)c1", "note": "(centres unmarked) [Compound A9]", "values": [
      {"measurement": "IC50", "setting": "AR [1]", "result": 5.5, "unit": "µM"},
      {"measurement": "B2 = % Toxicity of test compound (20 μM)", "setting": "CV1 cells", "result": 0, "unit": "%"},
      {"measurement": "B3 = % Toxicity of test compound (60 μM)", "setting": "CV1 cells", "result": 0, "unit": "%"},
      {"measurement": "B4 = Relative agonist activity (no R1881) of test compounds (20 μM) in AR overexpressing LNCaP cells (NKX3.1 AR target gene)", "setting": "AR [2]", "result": 1},
      {"measurement": "B6 Relative agonist activity (no R1881) of test compounds (20 μM) in AR overexpressing LNCaP cells (PSA AR target gene)", "setting": "AR [2]", "result": 1},
      {"measurement": "B5 = Relative antagonist activity (plus 0.1 nM R1881) of test compounds (20 μM) in AR overexpressing LNCaP cells (NKX3.1 AR target gene)", "setting": "AR [2]", "result": 1},
      {"measurement": "B7 = Relative antagonist activity (plus 0.1 nM R1881) of test compounds (20 μM) in AR overexpressing LNCaP cells (PSA AR target gene)", "setting": "AR [2]", "result": 1}
    ]},
    {"smiles": "CC1(C)CC(=O)C2=C(C1)Nc1ccc3ccccc3c1C2c1ccncc1", "note": "(centres unmarked) [Compound A12]", "values": [
      {"measurement": "IC50", "setting": "AR [1]", "result": 8.6, "unit": "µM"},
      {"measurement": "B2 = % Toxicity of test compound (20 μM)", "setting": "CV1 cells", "result": 0, "unit": "%"},
      {"measurement": "B3 = % Toxicity of test compound (60 μM)", "setting": "CV1 cells", "result": 94, "unit": "%"},
      {"measurement": "B4 = Relative agonist activity (no R1881) of test compounds (20 μM) in AR overexpressing LNCaP cells (NKX3.1 AR target gene)", "setting": "AR [2]", "result": 1},
      {"measurement": "B6 Relative agonist activity (no R1881) of test compounds (20 μM) in AR overexpressing LNCaP cells (PSA AR target gene)", "setting": "AR [2]", "result": 1},
      {"measurement": "B5 = Relative antagonist activity (plus 0.1 nM R1881) of test compounds (20 μM) in AR overexpressing LNCaP cells (NKX3.1 AR target gene)", "setting": "AR [2]", "result": 2},
      {"measurement": "B7 = Relative antagonist activity (plus 0.1 nM R1881) of test compounds (20 μM) in AR overexpressing LNCaP cells (PSA AR target gene)", "setting": "AR [2]", "result": 3}
    ]},
    {"smiles": "O=C1CCCC2=C1C(c1ccc([N+](=O)[O-])cc1)c1c(ccc3ncccc13)N2", "note": "(centres unmarked) [Compound A18]", "values": [
      {"measurement": "IC50", "setting": "AR [1]", "result": "> 10", "unit": "µM"},
      {"measurement": "B2 = % Toxicity of test compound (20 μM)", "setting": "CV1 cells", "result": 0, "unit": "%"},
      {"measurement": "B3 = % Toxicity of test compound (60 μM)", "setting": "CV1 cells", "result": 22, "unit": "%"},
      {"measurement": "B6 Relative agonist activity (no R1881) of test compounds (20 μM) in AR overexpressing LNCaP cells (PSA AR target gene)", "setting": "AR [2]", "result": 1},
      {"measurement": "B7 = Relative antagonist activity (plus 0.1 nM R1881) of test compounds (20 μM) in AR overexpressing LNCaP cells (PSA AR target gene)", "setting": "AR [2]", "result": 2}
    ]},
    {"smiles": "N#Cc1ccc(C2C3=C(CCCC3=O)Nc3ccc4ccccc4c32)cc1", "note": "(centres unmarked) [Compound A22]", "values": [
      {"measurement": "IC50", "setting": "AR [1]", "result": "> 10", "unit": "µM"},
      {"measurement": "B2 = % Toxicity of test compound (20 μM)", "setting": "CV1 cells", "result": 0, "unit": "%"},
      {"measurement": "B3 = % Toxicity of test compound (60 μM)", "setting": "CV1 cells", "result": 66, "unit": "%"},
      {"measurement": "B6 Relative agonist activity (no R1881) of test compounds (20 μM) in AR overexpressing LNCaP cells (PSA AR target gene)", "setting": "AR [2]", "result": 3},
      {"measurement": "B7 = Relative antagonist activity (plus 0.1 nM R1881) of test compounds (20 μM) in AR overexpressing LNCaP cells (PSA AR target gene)", "setting": "AR [2]", "result": 3}
    ]}
  ]
}
